From ChEMBL document CHEMBL1212744, “Relative contributions of active mediated transport and passive diffusion of fluoroquinolones with various lipophilicities in a Calu-3 lung epithelial cell model” (Antimicrob Agents Chemother, 2010) come the findings set out here.

Data set [1] is described as follows: Efflux ratio of apparent permeability across basolateral to apical side over apical to basolateral side in human Calu3 cells.
Data set [2] in a line: Apparent permeability across basolateral to apical side in human Calu3 cells.
Data set [3] can be described thus: Distribution coefficient, log D of the compound. The conditions noted are these: octanol/water.
A short description of data set [4]: Apparent permeability across apical to basolateral side in human Calu3 cells.

`Cc1c(F)c(N2CCNC(C)C2)cc2c1c(=O)c(C(=O)O)cn2C1CC1` (stereo unspecified) [GREPAFLOXACIN]: the efflux ratio in data set [1] came out at 3.8. The Papp B→A in data set [2] is 11.8 ×10⁻⁶ cm/s. The molecule further yielded a logD in data set [3] of 0.03. Further, in data set [4], the Papp A→B came out at 3.1 ×10⁻⁶ cm/s.
`C[C@H]1COc2c(N3CCN(C)CC3)c(F)cc3c(=O)c(C(=O)O)cn1c23.C[C@H]1COc2c(N3CCN(C)CC3)c(F)cc3c(=O)c(C(=O)O)cn1c23.O` [LEVOFLOXACIN] showed a logD in data set [3] of -0.41.
Turning to `COc1c(N2C[C@@H]3CCCN[C@@H]3C2)c(F)cc2c(=O)c(C(=O)O)cn(C3CC3)c12` [MOXIFLOXACIN], in data set [2], the basolateral-to-apical permeability (Papp B→A) was 10.4 ×10⁻⁶ cm/s. Further, the Papp A→B in data set [4] was 5 ×10⁻⁶ cm/s.
As for `CCn1cc(C(=O)O)c(=O)c2cc(F)c(N3CCNCC3)cc21` [NORFLOXACIN], the efflux ratio in data set [1] worked out at 3.3. Further, in data set [2], the Papp B→A came out at 2 ×10⁻⁶ cm/s. The logD in data set [3] was -1.16. Further, the Papp A→B in data set [4] worked out at 0.6 ×10⁻⁶ cm/s.

By efflux ratio is commonly meant the permeability from basolateral to apical divided by that in the opposite direction, in the common usage. One may read the Papp B→A as how fast a substance crosses the layer from the basolateral side. What is called logD is lipophilicity at a set pH, counting ionised and neutral species. Usually Papp A→B stands for the apparent permeability from the apical to the basolateral side of a cell layer.
